Data set [1] is described as follows: RP-HPLC retention on Purosphere RP-18e (ODS) column, buffer pH 7.4-acetonitrile. The format is physicochemical. To be noted: for log kw, ODS: extrapolated to buffer pH 7.4 as mobile phase, 25 °C; for s ODS: slope of Soczewiński-Wachtmeister equation, acetonitrile φ 0.3–0.6. In a few lines: (§1)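 Mobile phase: pH 7.4 Na2HPO4/citric acid buffer (0.01 mol L^−1) with acetonitrile at several volume fractions per column; 25 °C, UV detection at 210 and 254 nm, citric acid as dead-time marker. log kw extrapolated to pure buffer by Soczewiński-Wachtmeister equation; mean of ≥3 independent measurements.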

Data set [2] in a line: RP-HPLC retention on IAM.PC.DD2 (immobilized artificial membrane) column, buffer pH 7.4-acetonitrile. To be noted: for log kw, IAM: extrapolated to buffer pH 7.4 as mobile phase, 25 °C; for s IAM: slope of Soczewiński-Wachtmeister equation, acetonitrile φ 0.2–0.5. In kind it is physicochemical. In a few lines:
as §1

The nature of data set [3]: RP-HPLC retention on Cosmosil Cholester column, buffer pH 7.4-acetonitrile. The format is physicochemical. To be noted: for log kw, Cholester: extrapolated to buffer pH 7.4 as mobile phase, 25 °C; for s Cholester: slope of Soczewiński-Wachtmeister equation, acetonitrile φ 0.4–0.6. In a few lines: as §1
The subject of data set [4] is Herpes simplex virus type 1. On the set-up: method as in PMID 30807815. The conditions noted are these: cited from earlier work.
The subject of a further data set is normal Vero cells. Set-up: method as in PMID 30807815. The conditions noted are these: cited from earlier work.
Another data set relates to erythrocytes. On the set-up: method as in PMID 30807815. To be noted: cited from earlier work.
In the next data set the test system is human cancer cells. Set-up: method as in doi:10.1016/j.arabjc.2016.12.024, PMID 24126095. To be noted: cited from earlier work.
Another data set deals with normal cells. On the set-up: method as in doi:10.1016/j.arabjc.2016.12.024, PMID 24126095. The conditions noted are these: cited from earlier work.
On the set-up of data set [5]: method as in PMID 24157086, PMID 25528370. To be noted: cited from earlier work.
Details of data set [6]: method as in PMID 16331406. The conditions noted are these: rats; BB = Cbrain/Cplasma; training set; cited from earlier work.

With `CCc1nnc2n(c1=O)CCN2c1ccc(Cl)c(Cl)c1` [Compound 6], in [1], the “log kw, ODS” value is listed as 2.53 and the “s ODS” value amounted to 4.49. For the same compound, in data set [2], the “log kw, IAM” value is 1.85 and the “s IAM” value worked out at 4.11. Moreover, in data set [3], the “log kw, Cholester” value is recorded as 2.05 and the “s Cholester” value is 3.61. Also, the “potency against Herpes simplex virus type 1” value in data set [4] is listed as “remarkable concentration-dependent potency”. Further, in the data set with normal Vero cells, the “toxicity to normal Vero cells” value is “low toxicity”. Moreover, in the data set on erythrocytes, the “oxidatively-induced haemolysis of erythrocytes” value is “inhibiting the oxidatively-induced haemolysis”. Also, in the data set on human cancer cells, the “antiproliferative activities in human cancer cells” value was “significant antiproliferative activities”. Also, the “toxic effects for normal cells” value in the data set on normal cells is recorded as “less toxic effects”.
Consider `CCOc1ccc(N2CCn3c2nnc(Cc2ccccc2)c3=O)cc1` [Compound 51], for which, in data set [1], the “log kw, ODS” value was 3.28 and the “s ODS” value was 5.61. In [2], the “log kw, IAM” value is on record as 2.11 and the “s IAM” value stood at 4.51. In addition, in data set [3], the “log kw, Cholester” value is reported as 2.68 and the “s Cholester” value was determined as 4.55. Also, the “antinociceptive effect in mice” value in data set [5] is given as “strongest antinociceptive effect”.
Consider `c1cncc([C@@H]2CCCN2)c1` [Compound 494-97-3], for which the “log BBexp.” value in data set [6] is given as 0.32.
For the compound `NC(N)=Nc1nc(-c2ccccc2)cs1` [Compound 2507-81-5], the “log BBexp.” value in data set [6] was −0.18.
As for `CN1C(=O)CC[C@H]1c1cccnc1` [Compound 486-56-6], in data set [6], the “log BBexp.” value is recorded as 0.04.
For the compound `Cc1ncc2n1-c1ccc(Cl)cc1C(c1ccccc1F)=NC2` [Compound 59467-70-8], the “log BBexp.” value in data set [6] is reported as 0.32.
Consider `Clc1cccc(Cl)c1NC1=NCCN1` [Compound 4205-90-7], for which the “log BBexp.” value in [6] is 0.19.
Turning to `Brc1cc(Br)c(NC2=NCCN2)c(Br)c1` [Compound 38941-33-2], the “log BBexp.” value in [6] is reported as 0.58.
On to `Brc1cccc(Br)c1NC1=NCCN1` [Compound 4205-93-0], for which the “log BBexp.” value in data set [6] was 0.33.
For `O=c1c(Cc2ccccc2Cl)nnc2n1CCN2c1ccccc1` [Compound 42], in data set [1], the “log kw, ODS” value was 3.28 and the “s ODS” value worked out at 5.10. In data set [2], the “log kw, IAM” value is 2.34 and the “s IAM” value turned out to be 4.78. Besides, in data set [3], the “log kw, Cholester” value was 2.83 and the “s Cholester” value is reported as 4.71. Further, the “antinociceptive effect in mice” value in data set [5] is given as “strongest antinociceptive effect”.
Regarding `COc1ccc2nc([S+]([O-])Cc3ncc(C)c(OC)c3C)[nH]c2c1` (stereo not shown) [Compound 73590-58-6], the “log BBexp.” value in data set [6] was −0.82.
Take `CC(C)(C)OC(=O)c1ncn2c1[C@@H]1CCCN1C(=O)c1c(Br)cccc1-2` [Compound 84379-13-5]: the “log BBexp.” value in [6] is −0.09.
Regarding `CN1CCC[C@H]1c1cccnc1` [Compound 54-11-5], the “log BBexp.” value in data set [6] is recorded as 0.56.
Take `COC(=O)Cc1nnc2n(c1=O)CCN2c1ccc(C)cc1` [Compound 8]: in data set [1], the “log kw, ODS” value is 1.90 and the “s ODS” value was determined as 3.82. Besides, in data set [2], the “log kw, IAM” value is given as 1.33 and the “s IAM” value was determined as 3.33. Besides, in [3], the “log kw, Cholester” value is 1.29 and the “s Cholester” value amounted to 2.75. Moreover, the “antinociceptive effect in mice” value in data set [5] is reported as “strongest antinociceptive effect”.
In the case of `Cc1cccc(N2CCn3c2nnc(-c2ccco2)c3=O)c1C` [Compound 21], in [1], the “log kw, ODS” value was 2.26 and the “s ODS” value is on record as 4.20. Moreover, in data set [2], the “log kw, IAM” value is recorded as 1.42 and the “s IAM” value stood at 3.51. For the same compound, in data set [3], the “log kw, Cholester” value was 1.66 and the “s Cholester” value is 3.33. Further, the “antiproliferative activities in human cancer cells” value in the data set with human cancer cells is reported as “significant antiproliferative activities”. Moreover, the “toxic effects for normal cells” value in the data set on normal cells is “less toxic effects”.
`Clc1ccc(NC2=NCCN2)c(Cl)c1` [Compound 23830-88-8]: the “log BBexp.” value in data set [6] was 0.16.
As for `CN1Cc2c(C(=O)OC(C)(C)C)ncn2-c2ccsc2C1=O` [Compound 99632-94-7], in [6], the “log BBexp.” value is −0.25.
